Where two headings read alike, the source gives them in different places.
Experiments:
[1] = target: T1, TYK2 (Homo sapiens, UniProt P29597); assay: Kinobeads assay, TYK2 (competition binding in mixed Molt4/Ramos cell lysate, dot blot detection)
T1 construct: endogenous in cells; host or cells: Molt4 (ATCC CRL-1582) and Ramos (ATCC CRL-1596), mixed lysate 1:2
How it was run: (§1)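 JAK2 and TYK2 retained on Kinobeads (immobilized aminopyrido-pyrimidine ligand) from 1:2 Molt4:Ramos lysate (10 mg/mL) were quantified by antibody dot blot (Odyssey infrared) after 3 h cold incubation with compound. Nine-step 1:3 dilution series; IC50 calculated from curves.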

[2] = target: T2, JAK2 (Homo sapiens, UniProt O60674); assay: Kinobeads assay, JAK2 (competition binding in mixed Molt4/Ramos cell lysate, dot blot detection); conditions: read-out: JAK2 Band (Kinobeads assay potency, IC50)
T2 construct: endogenous in cells; host or cells: Molt4 (ATCC CRL-1582) and Ramos (ATCC CRL-1596), mixed lysate 1:2
How it was run: as §1

[3] = Kinobeads assay, Molt4/Ramos lysate, read-out: TYK2 Band (Kinobeads assay potency, IC50)

T1 sequence (P29597 whole entry): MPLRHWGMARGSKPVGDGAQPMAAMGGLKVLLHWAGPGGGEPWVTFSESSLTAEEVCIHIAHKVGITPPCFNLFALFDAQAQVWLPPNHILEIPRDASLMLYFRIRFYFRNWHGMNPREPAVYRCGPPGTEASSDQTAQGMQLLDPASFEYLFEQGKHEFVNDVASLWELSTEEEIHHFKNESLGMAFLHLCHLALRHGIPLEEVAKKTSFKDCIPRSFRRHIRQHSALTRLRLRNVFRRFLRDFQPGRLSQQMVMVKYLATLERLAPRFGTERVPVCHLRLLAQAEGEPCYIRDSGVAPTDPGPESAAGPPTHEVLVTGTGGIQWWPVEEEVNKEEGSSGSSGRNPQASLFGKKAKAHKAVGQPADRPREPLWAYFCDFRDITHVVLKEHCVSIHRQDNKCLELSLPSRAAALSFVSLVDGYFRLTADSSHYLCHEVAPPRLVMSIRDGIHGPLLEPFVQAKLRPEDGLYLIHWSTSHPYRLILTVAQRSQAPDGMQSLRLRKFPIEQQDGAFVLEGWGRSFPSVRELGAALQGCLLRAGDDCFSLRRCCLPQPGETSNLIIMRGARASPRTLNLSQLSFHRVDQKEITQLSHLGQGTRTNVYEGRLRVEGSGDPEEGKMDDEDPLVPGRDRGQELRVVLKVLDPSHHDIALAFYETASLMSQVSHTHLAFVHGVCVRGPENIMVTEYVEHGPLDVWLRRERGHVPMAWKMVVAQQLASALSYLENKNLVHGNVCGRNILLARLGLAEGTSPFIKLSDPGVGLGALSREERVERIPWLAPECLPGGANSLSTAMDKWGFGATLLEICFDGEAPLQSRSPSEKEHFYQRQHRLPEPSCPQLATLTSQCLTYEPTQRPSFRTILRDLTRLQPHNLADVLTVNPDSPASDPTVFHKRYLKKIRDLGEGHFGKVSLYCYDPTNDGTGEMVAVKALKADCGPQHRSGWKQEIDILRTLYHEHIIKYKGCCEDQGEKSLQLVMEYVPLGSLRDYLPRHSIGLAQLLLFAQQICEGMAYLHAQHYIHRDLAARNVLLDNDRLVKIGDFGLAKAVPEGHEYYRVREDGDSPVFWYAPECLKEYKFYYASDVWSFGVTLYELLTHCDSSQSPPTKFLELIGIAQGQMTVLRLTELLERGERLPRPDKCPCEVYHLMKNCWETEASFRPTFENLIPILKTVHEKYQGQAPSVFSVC
T2 sequence (O60674 whole entry): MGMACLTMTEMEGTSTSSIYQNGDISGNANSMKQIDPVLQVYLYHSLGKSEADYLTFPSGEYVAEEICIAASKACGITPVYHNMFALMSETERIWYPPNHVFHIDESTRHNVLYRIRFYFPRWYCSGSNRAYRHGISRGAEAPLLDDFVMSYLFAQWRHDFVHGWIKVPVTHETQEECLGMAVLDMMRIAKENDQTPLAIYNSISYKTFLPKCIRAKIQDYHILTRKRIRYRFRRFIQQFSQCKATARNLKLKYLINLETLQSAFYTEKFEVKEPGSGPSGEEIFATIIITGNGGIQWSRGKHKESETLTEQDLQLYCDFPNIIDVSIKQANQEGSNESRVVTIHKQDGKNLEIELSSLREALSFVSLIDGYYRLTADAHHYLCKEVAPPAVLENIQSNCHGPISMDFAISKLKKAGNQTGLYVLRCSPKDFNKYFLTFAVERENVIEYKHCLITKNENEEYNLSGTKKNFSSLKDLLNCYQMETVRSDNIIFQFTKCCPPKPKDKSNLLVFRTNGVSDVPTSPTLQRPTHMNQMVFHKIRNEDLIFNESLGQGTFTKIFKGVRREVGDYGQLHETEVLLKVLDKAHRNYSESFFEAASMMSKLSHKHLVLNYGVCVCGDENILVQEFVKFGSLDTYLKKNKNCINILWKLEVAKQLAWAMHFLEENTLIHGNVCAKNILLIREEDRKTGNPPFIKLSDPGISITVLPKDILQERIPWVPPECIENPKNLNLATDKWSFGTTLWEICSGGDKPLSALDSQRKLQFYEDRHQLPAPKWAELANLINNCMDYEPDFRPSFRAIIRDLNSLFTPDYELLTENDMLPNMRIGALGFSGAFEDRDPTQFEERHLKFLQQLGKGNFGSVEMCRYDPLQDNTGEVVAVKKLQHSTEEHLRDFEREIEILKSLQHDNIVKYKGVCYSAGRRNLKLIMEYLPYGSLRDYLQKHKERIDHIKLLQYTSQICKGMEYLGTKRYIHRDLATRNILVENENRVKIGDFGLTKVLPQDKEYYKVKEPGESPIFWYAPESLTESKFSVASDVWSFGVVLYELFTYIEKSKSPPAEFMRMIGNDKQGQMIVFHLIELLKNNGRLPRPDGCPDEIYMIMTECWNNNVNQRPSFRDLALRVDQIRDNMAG

Row | SMILES | IC50 [1, 3] [nM] | IC50 [2] [nM] | IC50 ([1]; read-out: TYK2 IC50) [nM]
1 | COc1ccc(F)c(CNc2ccnc(Nc3cnn(CC(=O)N[C@H](C)CO)c3)n2)c1F [Example I-124] | 10 to 100 | 1000 to 10000 | 
2 | NC(=O)Cn1cc(Nc2nccc(NCc3c(F)cccc3F)n2)cn1 [Example I-313] | 10 to 100 | 1000 to 10000 | 
3 | CNC(=O)Cn1cc(Nc2ncc(C)c(NCc3c(F)ccc(F)c3F)n2)cn1 [Example I-421] | ≤ 10 | 100 to 1000 | 
4 | CNC(=O)Cn1cc(Nc2ncc(F)c(NCc3c(F)ccc(F)c3F)n2)cn1 [Example I-410] | 10 to 100 | 1000 to 10000 | 
5 | CNC(=O)Cn1cc(Nc2ncc(Cl)c(NCc3cc(F)ccc3S(C)(=O)=O)n2)cn1 [Example I-438] | 10 to 100 | 100 to 1000 | 
6 | Cc1cnc(Nc2cnn(CC(=O)N3CCOCC3)c2)nc1NCc1cccc(OC(F)F)c1 [Example I-23] | ≤ 10 | 1000 to 10000 | 
7 | COc1ccc(S(C)(=O)=O)cc1CNc1nc(Nc2cnn(CC(F)F)c2)ncc1C [Example I-107] | 10 to 100 | 100 to 1000 | 
8 | CN(C)C(=O)Cn1cc(Nc2ncc(F)c(NCc3c(F)ccc(F)c3F)n2)cn1 [Example I-411] | 10 to 100 | 1000 to 10000 | 
9 | CS(=O)(=O)c1ccccc1CNc1nc(Nc2cnn(CC3CC3)c2)ncc1Cl [Example I-476] | 1000 to 10000 | 1000 to 10000 | 
10 | COc1ccc(F)c(CNc2ccnc(Nc3cnn(CC(=O)N4CCOCC4)c3)n2)c1F [Example I-117] | ≤ 10 | 1000 to 10000 | 
11 | Cn1cc(Nc2nccc(NCc3c(Cl)ccc(Cl)c3F)n2)cn1 [Example I-60] | 10 to 100 | 100 to 1000 | 
12 | COc1ccc(F)c(CNc2ccnc(Nc3cnn(CC(=O)NC(C)C)c3)n2)c1F [Example I-65] | 10 to 100 | 1000 to 10000 | < 100
13 | COc1ccc(F)c(CNc2ccnc(Nc3cnn(CC(=O)N[C@@H](C)CO)c3)n2)c1F [Example I-133] | ≤ 10 | 1000 to 10000 | 
14 | OCCn1cc(Nc2ncc(Cl)c(NCc3ncccc3F)n2)cn1 [Example I-259] | 10 to 100 | 1000 to 10000 | 
15 | Fc1cccc(F)c1CNc1nc(Nc2cnn(C(F)F)c2)ncc1Cl [Example I-224] | 100 to 1000 | 1000 to 10000 | 
16 | CS(=O)(=O)c1ccccc1CNc1nc(Nc2cnn(CC(F)(F)F)c2)ncc1Cl [Example I-475] | 1000 to 10000 | > 10000 | 
17 | C[C@H](CO)NC(=O)Cn1cc(Nc2nccc(NCc3c(F)ccc(F)c3F)n2)cn1 [Example I-143] | 10 to 100 | 1000 to 10000 | 
18 | Cn1cc(Nc2ncc(Cl)c(NCc3c(F)cccc3C(F)(F)F)n2)cn1 [Example I-118] | 10 to 100 | 1000 to 10000 | 
19 | COc1ccc(F)c(CNc2ccnc(Nc3cnn(CC(=O)NC4CC4)c3)n2)c1F [Example I-125] | ≤ 10 | 1000 to 10000 | < 100

Row | SMILES | IC50 [1, 3] [nM] | IC50 [2] [nM] | IC50 ([1]; read-out: TYK2 IC50) [nM]
20 | Cn1cc(Nc2ncc(F)c(NCc3c(F)cc(S(N)(=O)=O)cc3F)n2)cn1 [Example I-379] | 10 to 100 | 1000 to 10000 | 
21 | CNC(=O)Cn1cc(Nc2ncc(C)c(NCc3c(F)cccc3F)n2)cn1 [Example I-419] | 10 to 100 | 100 to 1000 | 
22 | NC(=O)Cn1cc(Nc2ncc(F)c(NCc3c(F)cccc3F)n2)cn1 [Example I-380] | 10 to 100 | 1000 to 10000 | 
23 | OCCn1cc(Nc2ncc(Cl)c(NCc3cc(Br)cc(F)c3F)n2)cn1 [Example I-264] | 100 to 1000 | 100 to 1000 | 
24 | Fc1cccc(CNc2nc(Nc3cn[nH]c3)ncc2Cl)c1 [Example I-370] | 100 to 1000 | 100 to 1000 | 
25 | OCCn1cc(Nc2ncc(Cl)c(NCc3c(Cl)cccc3Cl)n2)cn1 [Example I-323] | 10 to 100 | 100 to 1000 | 
26 | CC(C)NC(=O)Cn1cc(Nc2nccc(NCc3c(Cl)ccc(Cl)c3F)n2)cn1 [Example I-78] | ≤ 10 | 100 to 1000 | 
27 | CC(C)(C)NC(=O)Cn1cc(Nc2ncc(F)c(NCc3c(F)cc(F)cc3F)n2)cn1 [Example I-429] | 10 to 100 | 1000 to 10000 | 
28 | OCCn1cc(Nc2ncc(Cl)c(NCc3cccc(F)c3F)n2)cn1 [Example I-180] | 10 to 100 | 100 to 1000 | 
29 | CS(=O)(=O)c1cccc(CNc2nc(Nc3cnn(CC(=O)NCCO)c3)ncc2Cl)c1 [Example I-441] | 100 to 1000 | 1000 to 10000 | 
30 | CC1(C)COCCN1C(=O)Cn1cc(Nc2ncc(F)c(NCc3c(F)cc(F)cc3F)n2)cn1 [Example I-309] | 10 to 100 | 1000 to 10000 | 
31 | CS(=O)(=O)NCc1cccc(CNc2nc(Nc3cnn(CCO)c3)ncc2F)c1 [Example I-415] | 100 to 1000 | 1000 to 10000 | 
32 | Cc1cnc(Nc2cnn(CC(=O)N(C)C)c2)nc1NCc1cc(F)cc(C(F)(F)F)c1 [Example I-330] | 100 to 1000 | 1000 to 10000 | 
33 | CC(C)NC(=O)Cn1cc(Nc2nccc(NCc3cccc(OC(F)F)c3)n2)cn1 [Example I-67] | 10 to 100 | > 10000 | < 100
34 | CC(C)NC(=O)Cn1cc(Nc2nccc(NCc3c(F)ccc(F)c3F)n2)cn1 [Example I-63] | ≤ 10 | 1000 to 10000 | 
35 | CNC(=O)Cn1cc(Nc2ncc(Cl)c(NCc3c(Cl)cccc3Cl)n2)cn1 [Example I-325] | 10 to 100 | 1000 to 10000 | 
36 | CC(C)NC(=O)Cn1cc(Nc2nccc(NCc3c(Cl)cccc3Cl)n2)cn1 [Example I-76] | 10 to 100 | > 10000 | 
37 | C[C@@H]1COCCN1C(=O)Cn1cc(Nc2ncc(F)c(NCc3c(F)cc(F)cc3F)n2)cn1 [Example I-40] | 10 to 100 | 1000 to 10000 | 
38 | Cc1ccc(F)c(CNc2nc(Nc3cn[nH]c3)ncc2Cl)c1F [Example I-371] | 10 to 100 | 1000 to 10000 | 

Row | SMILES | IC50 [1, 3] [nM] | IC50 [2] [nM] | IC50 ([1]; read-out: TYK2 IC50) [nM]
39 | O=C(O)Cn1cc(Nc2ncc(F)c(NCc3cccc(OC(F)F)c3)n2)cn1 [Example I-425] | 10 to 100 | > 10000 | 
40 | Cn1ccnc1Cn1cc(Nc2ncc(Cl)c(NCc3ccccc3)n2)cn1 [Example I-248] | 100 to 1000 | 1000 to 10000 | 
41 | O=C(Cn1cc(Nc2ncc(Cl)c(NCc3c(F)ccc(F)c3F)n2)cn1)NC1CC1 [Example I-335] | ≤ 10 | 100 to 1000 | 
42 | COc1ccc(F)c(CNc2nc(Nc3cnn(C)c3)ncc2F)c1F [Example I-383] | 10 to 100 | 1000 to 10000 | 
43 | CC(C)NC(=O)Cn1cc(Nc2nccc(NCc3c(F)cc(F)cc3Cl)n2)cn1 [Example I-94] | 10 to 100 | 1000 to 10000 | 
44 | NC(=O)Cn1cc(Nc2ncc(F)c(NCc3c(Cl)cccc3Cl)n2)cn1 [Example I-328] | 10 to 100 | 1000 to 10000 | 
45 | OCCn1cc(Nc2ncc(Cl)c(NCc3ccccc3)n2)cn1 [Example I-192] | 10 to 100 | 100 to 1000 | 
46 | [2H]C([2H])(O)C([2H])([2H])n1cc(Nc2ncc(Cl)c(NCc3c(F)cccc3F)n2)cn1 [Example I-234] | 10 to 100 | 100 to 1000 | 
47 | CN(C)C(=O)Cn1cc(Nc2ncc(Cl)c(NCc3cccc(CNS(C)(=O)=O)c3)n2)cn1 [Example I-416] | 100 to 1000 | 100 to 1000 | 
48 | OCCn1cc(Nc2ncc(F)c(NCc3ccccc3)n2)cn1 [Example I-193] | 100 to 1000 | 1000 to 10000 | 
49 | CC(C)NC(=O)Cn1cc(Nc2ncc(F)c(NCc3cccc(OC(F)F)c3)n2)cn1 [Example I-45] | 10 to 100 | > 10000 | 
50 | NS(=O)(=O)c1ccc(CNc2nc(Nc3cnn(CC(=O)N4CCOCC4)c3)ncc2F)cc1 [Example I-11] | 10 to 100 | > 10000 | 
51 | Cn1cc(Nc2ncc(Cl)c(NCc3cccc(F)c3F)n2)cn1 [Example I-179] | 100 to 1000 | 100 to 1000 | 
52 | C[C@@H](CO)NC(=O)Cn1cc(Nc2nccc(NCc3c(F)cccc3Cl)n2)cn1 [Example I-120] | ≤ 10 | 1000 to 10000 | 
53 | CNC(=O)Cn1cc(Nc2ncc(Cl)c(NCc3cccc(F)c3)n2)cn1 [Example I-212] | 100 to 1000 | 100 to 1000 | 
54 | N#Cc1cccc(CNc2nc(Nc3cnn(CCO)c3)ncc2F)c1 [Example I-167] | 10 to 100 | 1000 to 10000 | 
55 | CN(Cc1cccc(CNc2nc(Nc3cnn(CCO)c3)ncc2Cl)c1)S(C)(=O)=O [Example I-398] | 100 to 1000 | 1000 to 10000 | 
56 | COc1ccc(S(C)(=O)=O)cc1CNc1nc(Nc2cnn(C)c2)ncc1Cl [Example I-449] | 10 to 100 | 100 to 1000 | 

— US9296725B2, “Heterocyclyl pyrimidine analogues as TYK2 inhibitors” (Cellzome Limited, priority 2012, dated 2016)
